Tested on: adult patients with essential tremor
Assay: Example 16: accelerometer-based (Kinesia ONE) TETRAS upper limb score
Type: in vivo, human
Source text: Accelerometer (Kinesia ONE) TETRAS assessments were generally consistent with those conducted at the clinic. Accelerometer upper limb score values are summarized for Part A, the open-label titration phase of Part B, and the randomized withdrawal phase of Part B in Table 37, Table 38, and Table 39, respectively

[1] = Part B Open-Label Titration (N = 17), Day 42, Post - dose
[2] = Part B Open-Label Titration (N = 17), Day 42, Pre - dose
[3] = Part B Open-Label Titration, pre-dose baseline upper limb scores ≥10 (N = 12), Day 1, Post - dose
[4] = Part B Open-Label Titration, pre-dose baseline upper limb scores ≥10 (N = 12), Day 7
[5] = Part B Open-Label Titration, pre-dose baseline upper limb scores ≥10 (N = 12), Day 21
[6] = Part B Open-Label Titration, pre-dose baseline upper limb scores ≥10 (N = 12), Day 42, Post - dose
[7] = Part B Open-Label Titration, pre-dose baseline upper limb scores ≥10 (N = 12), Day 42, Pre - dose
[8] = Part B Randomized Withdrawal, Formula (I) group (N = 6), Day 1, Post - dose
[9] = Part B Randomized Withdrawal, Formula (I) group (N = 6), Day 7
[10] = Part B Randomized Withdrawal, Formula (I) group (N = 6), Day 21
[11] = Part B Randomized Withdrawal, Formula (I) group (N = 6), Day 42, Post - dose
[12] = Part B Randomized Withdrawal, Formula (I) group (N = 6), Day 42, Pre - dose
[13] = Part B Randomized Withdrawal, Formula (I) group (N = 6), Day 42 Post - dose (Randomization Baseline)
[14] = Part B Randomized Withdrawal, Formula (I) group (N = 6), Day 56
[15] = Part B Randomized Withdrawal, Formula (I) group (N = 6), Day 70
[16] = Part B Randomized Withdrawal, Day 56
[17] = Part B Randomized Withdrawal, Day 70

SMILES: CC(C)(C)NC(=O)CN1CCC(CNC(=O)c2cc(F)cc(Cl)c2)CC1 [compound of formula (I), N-((1-(2-(tert-butylamino)-2-oxoethyl)piperidin-4-yl)methyl)-3-chloro-5-fluorobenzamide]
- Percentage Change from Baseline in Tremor Amplitude, Median (Part B Open-Label Titration (N = 17), Day 21): −17.46%
- Accelerometer-Based Upper Limb Score, Change from Baseline, LS Mean (SE) [1]: −1.798 (0.4511)
- Accelerometer-Based Upper Limb Score, Change from Baseline, Mean (SD) [1]: −1.73 (2.009)
- Accelerometer-Based Upper Limb Score, Change from Baseline, Median [1]: −2.40
- Accelerometer-Based Upper Limb Score, observed, Mean (SD) [1]: 9.44 (2.857)
- Accelerometer-Based Upper Limb Score, observed, Median [1]: 8.60
- LS Mean Percentage Change in Tremor Amplitude [1]: −29.2%
- Percentage Change from Baseline in Tremor Amplitude, Mean (SD) [1]: −24.06 (27.567) %
- Percentage Change from Baseline in Tremor Amplitude, Median [1]: −36.90%
- Accelerometer-Based Upper Limb Score, Change from Baseline, LS Mean (SE) [2]: −1.766 (0.5175)
- Accelerometer-Based Upper Limb Score, Change from Baseline, Mean (SD) [2]: −1.70 (1.829)
- Accelerometer-Based Upper Limb Score, Change from Baseline, Median [2]: −2.00
- Accelerometer-Based Upper Limb Score, observed, Mean (SD) [2]: 9.48 (3.369)
- Accelerometer-Based Upper Limb Score, observed, Median [2]: 9.65
- LS Mean Percentage Change in Tremor Amplitude [2]: −28.7%
- Percentage Change from Baseline in Tremor Amplitude, Mean (SD) [2]: −24.79 (26.969) %
- Percentage Change from Baseline in Tremor Amplitude, Median [2]: −31.87%
- Accelerometer-Based Upper Limb Score, Change from Baseline, LS Mean (SE) [3]: −0.764 (0.4030)
- Accelerometer-Based Upper Limb Score, Change from Baseline, Mean (SD) [3]: −0.75 (1.696)
- Accelerometer-Based Upper Limb Score, Change from Baseline, Median [3]: −0.93
- Accelerometer-Based Upper Limb Score, observed, Mean (SD) [3]: 11.00 (2.303)
- Accelerometer-Based Upper Limb Score, observed, Median [3]: 10.95
- LS Mean Percentage Change in Tremor Amplitude [3]: −13.6%
- Percentage Change from Baseline in Tremor Amplitude, Mean (SD) [3]: −11.30 (25.126) %
- Percentage Change from Baseline in Tremor Amplitude, Median [3]: −16.10%
- Accelerometer-Based Upper Limb Score, Change from Baseline, LS Mean (SE) [4]: −1.677 (0.4345)
- Accelerometer-Based Upper Limb Score, Change from Baseline, Mean (SD) [4]: −2.03 (1.939)
- Accelerometer-Based Upper Limb Score, Change from Baseline, Median [4]: −2.05
- Accelerometer-Based Upper Limb Score, observed, Mean (SD) [4]: 9.96 (3.151)
- Accelerometer-Based Upper Limb Score, observed, Median [4]: 11.10
- LS Mean Percentage Change in Tremor Amplitude [4]: −27.5%
- Percentage Change from Baseline in Tremor Amplitude, Mean (SD) [4]: −28.60 (24.257) %
- Percentage Change from Baseline in Tremor Amplitude, Median [4]: −32.52%
- Accelerometer-Based Upper Limb Score, Change from Baseline, LS Mean (SE) [5]: −2.295 (0.6539)
- Accelerometer-Based Upper Limb Score, Change from Baseline, Mean (SD) [5]: −2.04 (2.248)
- Accelerometer-Based Upper Limb Score, Change from Baseline, Median [5]: −1.48
- Accelerometer-Based Upper Limb Score, observed, Mean (SD) [5]: 9.91 (2.999)
- Accelerometer-Based Upper Limb Score, observed, Median [5]: 10.98
- LS Mean Percentage Change in Tremor Amplitude [5]: −35.6%
- Percentage Change from Baseline in Tremor Amplitude, Mean (SD) [5]: −27.37 (27.794) %
- Percentage Change from Baseline in Tremor Amplitude, Median [5]: −24.34%
- Accelerometer-Based Upper Limb Score, Change from Baseline, LS Mean (SE) [6]: −1.818 (0.5342)
- Accelerometer-Based Upper Limb Score, Change from Baseline, Mean (SD) [6]: −1.87 (2.027)
- Accelerometer-Based Upper Limb Score, Change from Baseline, Median [6]: −2.40
- Accelerometer-Based Upper Limb Score, observed, Mean (SD) [6]: 9.93 (2.878)
- Accelerometer-Based Upper Limb Score, observed, Median [6]: 10.40
- LS Mean Percentage Change in Tremor Amplitude [6]: −29.4%
- Percentage Change from Baseline in Tremor Amplitude, Mean (SD) [6]: −26.06 (27.100) %
- Percentage Change from Baseline in Tremor Amplitude, Median [6]: −36.90%
- Accelerometer-Based Upper Limb Score, Change from Baseline, LS Mean (SE) [7]: −1.559 (0.5803)
- Accelerometer-Based Upper Limb Score, Change from Baseline, Mean (SD) [7]: −1.57 (1.914)
- Accelerometer-Based Upper Limb Score, Change from Baseline, Median [7]: −2.00
- Accelerometer-Based Upper Limb Score, observed, Mean (SD) [7]: 10.23 (3.244)
- Accelerometer-Based Upper Limb Score, observed, Median [7]: 11.15
- LS Mean Percentage Change in Tremor Amplitude [7]: −25.9%
- Percentage Change from Baseline in Tremor Amplitude, Mean (SD) [7]: −22.96 (28.661) %
- Percentage Change from Baseline in Tremor Amplitude, Median [7]: −31.87%
- Accelerometer-Based Upper Limb Score, Change from Baseline, Mean (SD) [8]: −0.08 (1.710)
- Accelerometer-Based Upper Limb Score, Change from Baseline, Median [8]: −0.78
- Accelerometer-Based Upper Limb Score, observed, Mean (SD) [8]: 9.98 (2.321)
- Accelerometer-Based Upper Limb Score, observed, Median [8]: 10.78
- Percentage Change from Baseline in Tremor Amplitude, Mean (SD) [8]: −2.18 (27.539) %
- Percentage Change from Baseline in Tremor Amplitude, Median [8]: −13.59%
- Accelerometer-Based Upper Limb Score, Change from Baseline, Mean (SD) [9]: −0.79 (1.542)
- Accelerometer-Based Upper Limb Score, Change from Baseline, Median [9]: −1.20
- Accelerometer-Based Upper Limb Score, observed, Mean (SD) [9]: 9.55 (2.774)
- Accelerometer-Based Upper Limb Score, observed, Median [9]: 10.15
- Percentage Change from Baseline in Tremor Amplitude, Mean (SD) [9]: −12.59 (25.197) %
- Percentage Change from Baseline in Tremor Amplitude, Median [9]: −19.95%
- Accelerometer-Based Upper Limb Score, Change from Baseline, Mean (SD) [10]: −0.56 (1.273)
- Accelerometer-Based Upper Limb Score, Change from Baseline, Median [10]: −0.55
- Accelerometer-Based Upper Limb Score, observed, Mean (SD) [10]: 9.50 (2.760)
- Accelerometer-Based Upper Limb Score, observed, Median [10]: 9.88
- Percentage Change from Baseline in Tremor Amplitude, Mean (SD) [10]: −8.75 (21.102) %
- Percentage Change from Baseline in Tremor Amplitude, Median [10]: −9.68%
- Accelerometer-Based Upper Limb Score, Change from Baseline, Mean (SD) [11]: −0.68 (1.718)
- Accelerometer-Based Upper Limb Score, Change from Baseline, Median [11]: −0.23
- Percentage Change from Baseline in Tremor Amplitude, Mean (SD) [11]: −9.46 (26.746) %
- Percentage Change from Baseline in Tremor Amplitude, Median [11]: −3.87%
- Accelerometer-Based Upper Limb Score, Change from Baseline, Mean (SD) [12]: −0.73 (1.948)
- Accelerometer-Based Upper Limb Score, Change from Baseline, Median [12]: −0.98
- Accelerometer-Based Upper Limb Score, observed, Mean (SD) [12]: 9.33 (2.645)
- Accelerometer-Based Upper Limb Score, observed, Median [12]: 10.40
- Percentage Change from Baseline in Tremor Amplitude, Mean (SD) [12]: −10.75 (29.656) %
- Percentage Change from Baseline in Tremor Amplitude, Median [12]: −17.06%
- Accelerometer-Based Upper Limb Score, observed, Mean (SD) [13]: 9.38 (2.242)
- Accelerometer-Based Upper Limb Score, observed, Median [13]: 9.50
- Accelerometer-Based Upper Limb Score, Change from Baseline, Mean (SD) [14]: −0.55 (3.145)
- Accelerometer-Based Upper Limb Score, Change from Baseline, Median [14]: 0.62
- Accelerometer-Based Upper Limb Score, Change from Randomization, LS Mean (SE) [14]: 0.120 (0.9528)
- Accelerometer-Based Upper Limb Score, Change from Randomization, Mean (SD) [14]: 0.13 (1.495)
- Accelerometer-Based Upper Limb Score, Change from Randomization, Median [14]: 0.70
- Accelerometer-Based Upper Limb Score, observed, Mean (SD) [14]: 9.51 (2.810)
- Accelerometer-Based Upper Limb Score, observed, Median [14]: 9.75
- LS Mean Percentage Change in Tremor Amplitude (from Randomization) [14]: 2.3%
- Percentage Change from Baseline in Tremor Amplitude, Mean (SD) [14]: −4.53 (43.487) %
- Percentage Change from Baseline in Tremor Amplitude, Median [14]: 9.78%
- Percentage Change from Randomization in Tremor Amplitude, Mean (SD) [14]: 2.74 (24.404) %
- Percentage Change from Randomization in Tremor Amplitude, Median [14]: 12.37%
- Accelerometer-Based Upper Limb Score, Change from Baseline, Mean (SD) [15]: 1.30 (2.932)
- Accelerometer-Based Upper Limb Score, Change from Baseline, Median [15]: 0.35
- Accelerometer-Based Upper Limb Score, Change from Randomization, LS Mean (SE) [15]: 2.482 (1.0202)
- Accelerometer-Based Upper Limb Score, Change from Randomization, Mean (SD) [15]: 2.34 (2.050)
- Accelerometer-Based Upper Limb Score, Change from Randomization, Median [15]: 1.85
- Accelerometer-Based Upper Limb Score, observed, Mean (SD) [15]: 11.33 (2.653)
- Accelerometer-Based Upper Limb Score, observed, Median [15]: 12.40
- LS Mean Percentage Change in Tremor Amplitude (from Randomization) [15]: 37.9%
- Percentage Change from Baseline in Tremor Amplitude, Mean (SD) [15]: 14.62 (35.044) %
- Percentage Change from Baseline in Tremor Amplitude, Median [15]: 6.50%
- Percentage Change from Randomization in Tremor Amplitude, Mean (SD) [15]: 32.71 (20.891) %
- Percentage Change from Randomization in Tremor Amplitude, Median [15]: 29.88%
- LS Mean (SE) for Difference (Formula (I) - Placebo), change from Randomization in accelerometer-based upper limb score [16]: −2.227 (1.4135)
- LS Mean Percentage Change Difference (Formula (I) - Placebo) [16]: −34.0%
- LS Mean (SE) for Difference (Formula (I) - Placebo), change from Randomization in accelerometer-based upper limb score [17]: −0.356 (1.4667)
- LS Mean Percentage Change Difference (Formula (I) - Placebo) [17]: −4.1%

Source: patent US20250295646A1, “METHODS OF USE OF T-TYPE CALCIUM CHANNEL MODULATORS” (Praxis Precision Medicines, Inc., priority 2022, published 2025)
